Here are results for 12 compounds from patent publication US20210196678A1, “SELECTIVE ANDROGEN RECEPTOR DEGRADER (SARD) LIGANDS AND METHODS OF USE THEREOF” (University of Tennessee Research Foundation, priority 2018, published 2021).

A short description of data set [1]: SARD compound serum concentrations in Hershberger rats (LC-MS/MS). To be noted: for Conc of 1065: serum of individual rats, 24-30 hours after the last dose, standards in nM.
Data set [2] is described as follows: HLM metabolism (half-life). Type of data set: in vitro ADME, human. As to conditions: for HLM Metabolism (H.L. min): human liver microsomes half-life. On the procedure: (§1) Table 4 reports the in vitro efficacy (transactivation/degradation) and metabolism (rat liver microsomes (RLM) and human LM (HLM) half-lives) data, in vivo efficacy (S.V. and prostate % diff in rats) and serum concentration in rats for all the compounds in the 20 mg/kg Hershberger experiment. […].

Data set [3] is described as follows: RLM metabolism (half-life). Type of data set: in vitro ADME. As to conditions: rat liver microsomes half-life. As for the experimental part:
as §1
On the technique in general: Liver microsomes are vesicles of endoplasmic reticulum, rich in cytochrome P450 enzymes.

Data set [4] deals with Intact Sprague Dawley rats. The data set can be described thus: Hershberger assay, seminal vesicles and prostate weights. The format is in vivo, rat.
The next data set concerns the target AR wildtype (wt) (Homo sapiens, UniProt P10275). The data set can be described thus: Transactivation assay with wt AR (GRE-LUC luciferase). Type of data set: cell-based.
The next data set has as its target T1, hAR-LBD (633-919) (Homo sapiens, UniProt P10275).
T1 construct: GST (N); made in house
T1 sequence (P10275 634-920): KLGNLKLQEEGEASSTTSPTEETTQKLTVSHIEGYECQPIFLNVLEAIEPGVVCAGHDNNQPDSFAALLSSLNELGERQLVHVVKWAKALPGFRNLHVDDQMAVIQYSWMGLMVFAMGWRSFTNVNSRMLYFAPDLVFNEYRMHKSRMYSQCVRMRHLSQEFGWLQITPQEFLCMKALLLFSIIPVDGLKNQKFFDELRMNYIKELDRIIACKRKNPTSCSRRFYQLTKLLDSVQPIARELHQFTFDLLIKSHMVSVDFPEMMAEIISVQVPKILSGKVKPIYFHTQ
The data set can be described thus: Ligand binding assay, GST-AR-LBD with [3H]mibolerone.

For another data set, the system named is full length AR. The data set can be described thus: LNCaP or AD1 degradation (full length AR, Western blot). Type of data set: cell-based. A general note: In western blotting, separated proteins are transferred to a membrane and probed.
The target of another data set is T2, PR (Homo sapiens, UniProt P06401).
T2 sequence (P06401 1-933): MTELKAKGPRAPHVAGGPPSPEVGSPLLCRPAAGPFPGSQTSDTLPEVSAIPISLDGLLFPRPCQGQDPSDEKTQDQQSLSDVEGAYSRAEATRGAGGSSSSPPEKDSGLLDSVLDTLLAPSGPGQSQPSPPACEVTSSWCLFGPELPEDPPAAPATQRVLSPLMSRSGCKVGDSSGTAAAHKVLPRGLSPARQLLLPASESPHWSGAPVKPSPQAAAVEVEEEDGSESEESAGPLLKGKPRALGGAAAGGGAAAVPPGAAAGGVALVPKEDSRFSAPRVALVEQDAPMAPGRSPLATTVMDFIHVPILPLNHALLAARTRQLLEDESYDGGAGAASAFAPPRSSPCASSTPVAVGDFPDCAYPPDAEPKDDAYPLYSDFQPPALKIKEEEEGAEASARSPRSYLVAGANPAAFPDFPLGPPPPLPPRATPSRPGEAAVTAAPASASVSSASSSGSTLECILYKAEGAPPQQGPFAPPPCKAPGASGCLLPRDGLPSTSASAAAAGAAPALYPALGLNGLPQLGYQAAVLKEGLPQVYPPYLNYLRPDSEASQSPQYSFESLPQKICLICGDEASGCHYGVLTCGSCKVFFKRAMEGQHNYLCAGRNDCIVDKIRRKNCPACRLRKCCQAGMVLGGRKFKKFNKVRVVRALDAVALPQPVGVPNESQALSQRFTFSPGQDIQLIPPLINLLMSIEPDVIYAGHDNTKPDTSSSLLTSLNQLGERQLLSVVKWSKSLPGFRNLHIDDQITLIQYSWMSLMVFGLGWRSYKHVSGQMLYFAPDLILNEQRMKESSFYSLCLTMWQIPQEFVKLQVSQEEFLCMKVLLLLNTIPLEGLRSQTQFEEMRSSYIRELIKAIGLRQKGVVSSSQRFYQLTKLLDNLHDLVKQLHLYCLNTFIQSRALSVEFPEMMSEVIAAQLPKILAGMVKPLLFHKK
As to conditions: positive control.

Setting [5] is: Table 2, rats, 20 mg/kg daily for 13 days.
Where [6] appears, read: 20 mg/kg Hershberger experiment.

Each structure is given as a SMILES string. Several values for one entry are separate records, joined by “and”; a condition that tells them apart may be missing. Equal entries are not always repeated. Entries after “also recorded” stand apart in the source; their conditions may differ.

Sequence of AR wildtype (wt) (P10275 whole entry, the tested form may be a part): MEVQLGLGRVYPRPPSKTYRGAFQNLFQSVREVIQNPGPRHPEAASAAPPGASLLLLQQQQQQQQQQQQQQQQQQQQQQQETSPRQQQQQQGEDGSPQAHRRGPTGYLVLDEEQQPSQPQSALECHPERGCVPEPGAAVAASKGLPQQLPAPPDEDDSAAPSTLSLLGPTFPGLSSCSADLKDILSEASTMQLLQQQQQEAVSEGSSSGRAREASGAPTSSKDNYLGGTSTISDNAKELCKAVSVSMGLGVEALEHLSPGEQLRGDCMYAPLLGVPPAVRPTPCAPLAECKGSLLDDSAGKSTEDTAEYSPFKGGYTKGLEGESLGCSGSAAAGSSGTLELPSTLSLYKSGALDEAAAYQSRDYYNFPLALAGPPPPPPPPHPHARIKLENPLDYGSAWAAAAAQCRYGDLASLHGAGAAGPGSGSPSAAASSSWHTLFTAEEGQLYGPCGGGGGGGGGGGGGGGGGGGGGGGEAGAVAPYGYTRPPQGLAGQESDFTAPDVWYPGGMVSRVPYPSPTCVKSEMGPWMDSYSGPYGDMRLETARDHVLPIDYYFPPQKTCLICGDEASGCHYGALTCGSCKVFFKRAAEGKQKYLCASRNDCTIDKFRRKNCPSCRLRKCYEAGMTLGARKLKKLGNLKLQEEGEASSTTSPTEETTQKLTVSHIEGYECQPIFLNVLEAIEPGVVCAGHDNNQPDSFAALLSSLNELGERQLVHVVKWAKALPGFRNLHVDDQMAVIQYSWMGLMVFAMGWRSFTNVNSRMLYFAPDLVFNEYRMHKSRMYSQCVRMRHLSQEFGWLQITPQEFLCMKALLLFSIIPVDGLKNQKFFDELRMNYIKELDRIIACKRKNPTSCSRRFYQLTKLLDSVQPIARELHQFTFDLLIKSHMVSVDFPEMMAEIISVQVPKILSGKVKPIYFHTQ

With `C[C@](O)(Cn1cc(F)cn1)C(=O)Nc1ccc(C#N)c(C(F)(F)F)c1.O=C(O)C(O)C(O)C(=O)O` [1002 tartarate], the “Serum conc.” value in data set [1] (setting [5]) was found to be 12.4 nM.
With `C[C@](O)(Cn1ccc2cc(F)ccc21)C(=O)Nc1ccc(C#N)c(C(F)(F)F)c1` [Compound 11], the “HLM Metabolism (H.L. min)” value in data set [2] stood at 6 min.
With `C[C@](O)(Cn1cc(F)cn1)C(=O)Nc1ccc(C#N)c(C(F)(F)F)c1` [Compound 1002], the “Serum conc.” value in data set [1] (setting [5]) came out at 9.3 nM.
Regarding `C[C@](O)(Cn1cc(C(F)(F)F)cn1)C(=O)Nc1ccc(C#N)c(C(F)(F)F)c1` [Compound 1017], the “RLM Metabolism (H.L. min)” value in data set [3] was 400 min. Besides, the “HLM Metabolism (H.L. min)” value in data set [2] is listed as 400 min.
For `C[C@](O)(Cn1cc(F)cn1)C(=O)Nc1cnc(C#N)c(C(F)(F)F)c1` [Compound 1022], the “RLM Metabolism (H.L. min)” value in data set [3] came out at 78 min. The “Serum conc.” value in data set [1] (setting [5]) stood at 64 nM; in data set [1] (Table 4, rats, 20 mg/kg), 33 nM. Also, the “HLM Metabolism (H.L. min)” value in data set [2] came to 82 min.
Turning to `C[C@](O)(Cn1cc(C#N)cn1)C(=O)Nc1ccc(C#N)c(C(F)(F)F)c1` [Compound 1048], the “RLM Metabolism (H.L. min)” value in data set [3] stood at 86 min. Also, the “HLM Metabolism (H.L. min)” value in data set [2] stood at 400 min.
Taken in the same sequence, the figures for `C[C@](O)(Cn1cc(Br)c(F)n1)C(=O)Nc1ccc(C#N)c(C(F)(F)F)c1` [Compound 1058, (S)-3-(4-Bromo-3-fluoro-1H-pyrazol-1-yl)-N-(4-cyano-3-(trifluoromethyl)phenyl)-2-hydroxy-2-methylpropanamide] were 400 min and 138 min.
For the compound `C[C@](O)(Cn1cc(C#N)cn1)C(=O)Nc1cnc(C#N)c(C(F)(F)F)c1` [Compound 1065], the “RLM Metabolism (H.L. min)” value in data set [3] was found to be 84 min. Besides, in data set [1] (Table 4, rats, 20 mg/kg), the “Serum conc.” value is listed as 561 nM. For the same compound, the “Conc of 1065” value in data set [1] (1 mg/kg, 1 mg/kg) was 81.58 and 87.25 and 120.1244 and 134.5505 and 129.9323; in data set [1] (5 mg/kg, 5 mg/kg), 630.4879 and 691.1901 and 485.4264 and 967.3936 and 798.7984; in data set [1] (10 mg/kg, 10 mg/kg), 637.641 and 915.1312 and 824.8076 and 681.9936 and 795.917; in data set [1] (20 mg/kg, 20 mg/kg), 1286.902 and 1298.179 and 1360.687 and 1397.834 and 1193.986. For the same compound, in data set [2] (after 60 min), the “HLM Metabolism, % metabolized after 60 min” value is on record as 10%. Also, in data set [2], the “HLM Metabolism (H.L. min)” value is “STABLE”. Also, the “(Prostate) % diff” value in data set [4] (setting [6]) is recorded as “.58%”. The “(S.V.) % diff” value in data set [4] (setting [6]) was “.88%”. For the same compound, the “Seminal vesicles weight reduction / in vivo AR antagonism, in words” value in data set [4] (20 mg/kg, compared to 1002 or castration) was “full AR antagonism in vivo; also recorded: reached castration levels; also recorded: significantly improved efficacy”. For the same compound, the “Prostate weight reduction, improved efficacy compared to 1002” value in data set [4] (FIGS. 7C and 7D) is “approximately 45%”.
Turning to `C[C@](O)(Cn1cc(Cl)c(Br)n1)C(=O)Nc1ccc(C#N)c(C(F)(F)F)c1` [Compound 1066], in data set [3], the “RLM Metabolism (H.L. min)” value is listed as 300 min. Also, the “HLM Metabolism (H.L. min)” value in data set [2] is 319 min.
Broadly, the IC50 is the point on the concentration scale where inhibition reaches its midpoint. `C[C@@H](Cn1cc(F)cn1)NC(=O)c1ccc(C#N)c(C(F)(F)F)c1` [Compound 1068, (S)-4-Cyano-N-(1-(4-fluoro-1H-pyrazol-1-yl)propan-2-yl)-3-(trifluoromethyl)benzamide] came in with an IC50 on AR wildtype (wt) of 0.417 µM. Also, the “wtAR Binding Ki (nM) (DHT = 1 nM)” value at hAR-LBD (633-919) was “no binding”. In the data set on full length AR (first of two values in the cell, 1 μM), the “SARD Activity Full Length % inhibition at 1 μM” value was 62%. For the same compound, in the data set on full length AR (second of two values in the cell, 10 μM), the “SARD Activity Full Length % inhibition at 10 μM” value is 96%.
With `CNC(=O)c1ccc(N2C(=S)N(c3ccc(C#N)c(C(F)(F)F)c3)C(=O)C2(C)C)cc1F` [Enzalutamide, reference compound], in data set [4] (enzalutamide 30 mg/kg), the “Seminal vesicles weight reduction compared to 1002, in words” value is listed as “marginally improved”.
Turning to `CC(=O)[C@H]1CC[C@H]2[C@@H]3CCC4=CC(=O)CC[C@]4(C)[C@H]3CC[C@]12C` [progesterone], the “PR agonism, in words” value at PR is “potent and full efficacy agonist activity”.
